Calls of active or inactive are those of the source. No cut-off for these calls is given here.
Assays:
[1] = system: NIH3T3; assay: Induction of topoisomerase 2 alpha protein expression in NIH3T3 cells after 24 hrs; format: functional, cell-based; details: Mus musculus
[2] = system: NIH3T3; assay: Inhibition of NF-Y binding to DNA sequence ICB2 in NIH3T3 cell extracts at 1 to 5 uM by EMSA; format: cell-free; details: Homo sapiens
[3] = species: Homo sapiens; assay: Binding affinity to DNA sequence ICB1 assessed as protection of ICB1 from DNAase I cleavage at 100 uM
[4] = system: NIH3T3; assay: Increased topoisomerase 2 alpha protein expression in NIH3T3 cells at 10 uM after 4 hrs; format: functional, cell-based; details: Mus musculus
[5] = species: Homo sapiens; assay: Binding affinity to DNA sequence ICB2 by SPR
[6] = system: NIH3T3; assay: Inhibition of NF-Y binding to DNA sequence ICB1 in NIH3T3 cell extracts at 50uM by EMSA; format: cell-free; details: Homo sapiens
[7] = species: Homo sapiens; assay: Binding affinity to DNA sequence ICB4 assessed as protection of ICB4 from DNAase I cleavage at 100 uM
[8] = system: NIH3T3; assay: Inhibition of NF-Y binding to DNA sequence ICB2 in NIH3T3 cell extracts at 50 uM by EMSA; format: cell-free; details: Homo sapiens

| Structure (SMILES) | Activity [1] | Activity [2] | Activity [3] | Activity [4] | Activity [5] | Activity [6] | Activity [7] | Activity [8] |
| --- | --- | --- | --- | --- | --- | --- | --- | --- |
| CN(C)CCNC(=O)c1cc(NC(=O)c2cc(NC(=O)c3cc(NC(=O)CCCNC(=O)c4nc(NC(=O)c5nc(NC(=O)c6cccn6C)cn5C)cn4C)cn3C)cn2C)cn1C | Active | Active | – | – | – | – | – | – |
| CN(C)CCNC(=O)c1cc(NC(=O)c2nc(NC(=O)c3cc(NC=O)cn3C)cn2C)cn1C | – | – | inactive | Active | 200000 M⁻¹ | inactive | inactive | Active |

From ChEMBL document CHEMBL1146168, “Binding of f-PIP, a pyrrole- and imidazole-containing triamide, to the inverted CCAAT box-2 of the topoisomerase IIalpha promoter and modulation of gene expression in cells” (Bioorg Med Chem Lett, 2006)
